Laboratory results taken from patent US20250188040A1, “PHARMACEUTICAL COMPOSITIONS COMPRISING WRN HELICASE INHIBITORS” (Vividion Therapeutics, Inc., priority 2022, published 2025).
Like-named read-outs stand apart in the source and are kept apart here.

Tests used:
[1] = target: T1, WRN C727 (Homo sapiens, UniProt Q14191); assay: Target engagement, in vitro (lysate), OCI-AML2; format: binding; conditions: read-out: OCI-AML2 WRN C727 TE50 in vitro (lysate)
T1 construct: endogenous in cells; host or cells: OCI-AML2
Outline: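 OCI-AML2 intact cells or lysates dosed with compound, then a cysteine-reactive probe; after trypsin digestion, probe-labelled peptides were streptavidin-enriched and quantified by nano-LC parallel reaction monitoring MS. Engagement (%) relative to DMSO controls.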

[2] = test system: HCT 116 cells; assay: Cell growth assay (CellTiter-Glo 2.0), HCT 116 MSI-H cell line; conditions: Homo sapiens, HCT-116, 120 h, read-out: Cell Growth Inhibition GI50 HCT-116
[3] = test system: SW480 cells; assay: Cell growth assay (CellTiter-Glo 2.0), SW480 MSS cell line; conditions: Homo sapiens, SW480, 120 h, read-out: Cell Growth Inhibition GI50 SW480
Procedure: The effects of compound on cellular viability were determined using the CellTiter-Glo® 2.0 Luminescent Cell Viability Assay (Promega, Madison, WI).
SW480 cells were seeded at 1,000 cells per well in Eagle's Minimum Essential Medium (EMEM) with 10% FBS. Both cell lines were seeded in a volume of 50 μL medium per well. […] The concentration range was adjusted as needed for compounds of different potencies. The cells treated with compounds were incubated for 5 days at 37° C. in 5% CO2. […] The plate was then read on a Clariostar plate reader (BMG Labtech, Cary, NC) in luminescence mode. The previously measured baseline cell viability was subtracted from the luminescence value of each well, and cell viability (% of DMSO) was plotted as a function of log compound concentration. The EC50 was then calculated for each compound using Dotmatics Software (San Diego, CA).

[4] = target: hWRN(519-1227)_C-H3CV-GFP-10His (Homo sapiens, UniProt Q14191); assay: Helicase Assay for WRN Inhibition (ATP-dependent, fluorescence based)
Procedure: Effects of compounds on WRN helicase activity were assessed with the Helicase Assay for WRN Inhibition. This is an ATP-dependent (inclusion of ATP is important and is required for this assay) fluorescence based assay using recombinant WRN and a fluorogenic DNA substrate.
WRN activity was normalized to signal from wells without WRN protein (background, 0% activity) and wells with protein treated only with DMSO (positive control, 10000 activity). For each compound the potency of inhibition (IC50) was determiined using Graphpad Prism.

[5] = WRN Helicase IC50, 30 min preincubation with ATP, 30 min reaction

T1 sequence (Q14191 whole entry): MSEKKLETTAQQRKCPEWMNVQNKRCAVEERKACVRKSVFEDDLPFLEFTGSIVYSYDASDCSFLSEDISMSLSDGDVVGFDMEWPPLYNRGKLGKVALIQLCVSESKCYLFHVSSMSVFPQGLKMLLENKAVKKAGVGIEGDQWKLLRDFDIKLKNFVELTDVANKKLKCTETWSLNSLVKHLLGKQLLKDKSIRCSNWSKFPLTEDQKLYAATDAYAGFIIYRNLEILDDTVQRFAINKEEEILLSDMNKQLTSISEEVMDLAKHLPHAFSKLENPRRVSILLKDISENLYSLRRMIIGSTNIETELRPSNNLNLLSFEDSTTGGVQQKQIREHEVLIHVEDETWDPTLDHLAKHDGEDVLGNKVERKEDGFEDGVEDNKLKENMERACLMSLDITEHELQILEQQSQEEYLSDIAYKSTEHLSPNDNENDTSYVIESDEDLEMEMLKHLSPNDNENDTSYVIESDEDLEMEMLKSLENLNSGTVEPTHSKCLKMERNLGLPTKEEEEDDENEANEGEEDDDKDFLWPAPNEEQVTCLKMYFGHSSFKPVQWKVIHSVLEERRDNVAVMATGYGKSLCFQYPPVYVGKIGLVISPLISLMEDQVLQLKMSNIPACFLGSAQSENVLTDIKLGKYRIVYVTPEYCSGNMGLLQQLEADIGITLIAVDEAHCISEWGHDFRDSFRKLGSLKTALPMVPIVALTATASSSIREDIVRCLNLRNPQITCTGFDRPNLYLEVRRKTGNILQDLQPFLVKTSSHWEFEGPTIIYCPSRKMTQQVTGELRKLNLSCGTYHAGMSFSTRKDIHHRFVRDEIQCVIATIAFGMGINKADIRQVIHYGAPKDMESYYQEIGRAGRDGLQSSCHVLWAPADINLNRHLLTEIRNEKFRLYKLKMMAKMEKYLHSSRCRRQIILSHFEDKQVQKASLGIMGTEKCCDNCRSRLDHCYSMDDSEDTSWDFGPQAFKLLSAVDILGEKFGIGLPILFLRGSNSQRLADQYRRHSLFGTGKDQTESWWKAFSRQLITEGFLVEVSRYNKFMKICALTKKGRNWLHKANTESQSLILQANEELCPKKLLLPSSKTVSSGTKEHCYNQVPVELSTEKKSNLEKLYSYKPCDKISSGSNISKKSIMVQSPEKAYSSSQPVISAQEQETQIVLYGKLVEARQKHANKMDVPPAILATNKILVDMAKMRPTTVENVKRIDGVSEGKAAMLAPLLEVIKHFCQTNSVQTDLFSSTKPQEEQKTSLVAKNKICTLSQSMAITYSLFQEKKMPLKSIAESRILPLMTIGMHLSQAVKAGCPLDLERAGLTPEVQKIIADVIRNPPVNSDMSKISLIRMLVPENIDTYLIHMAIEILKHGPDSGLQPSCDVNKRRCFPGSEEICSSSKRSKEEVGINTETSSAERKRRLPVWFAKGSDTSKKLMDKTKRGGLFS
hWRN(519-1227)_C-H3CV-GFP-10His, sequence (Q14191 519-1227): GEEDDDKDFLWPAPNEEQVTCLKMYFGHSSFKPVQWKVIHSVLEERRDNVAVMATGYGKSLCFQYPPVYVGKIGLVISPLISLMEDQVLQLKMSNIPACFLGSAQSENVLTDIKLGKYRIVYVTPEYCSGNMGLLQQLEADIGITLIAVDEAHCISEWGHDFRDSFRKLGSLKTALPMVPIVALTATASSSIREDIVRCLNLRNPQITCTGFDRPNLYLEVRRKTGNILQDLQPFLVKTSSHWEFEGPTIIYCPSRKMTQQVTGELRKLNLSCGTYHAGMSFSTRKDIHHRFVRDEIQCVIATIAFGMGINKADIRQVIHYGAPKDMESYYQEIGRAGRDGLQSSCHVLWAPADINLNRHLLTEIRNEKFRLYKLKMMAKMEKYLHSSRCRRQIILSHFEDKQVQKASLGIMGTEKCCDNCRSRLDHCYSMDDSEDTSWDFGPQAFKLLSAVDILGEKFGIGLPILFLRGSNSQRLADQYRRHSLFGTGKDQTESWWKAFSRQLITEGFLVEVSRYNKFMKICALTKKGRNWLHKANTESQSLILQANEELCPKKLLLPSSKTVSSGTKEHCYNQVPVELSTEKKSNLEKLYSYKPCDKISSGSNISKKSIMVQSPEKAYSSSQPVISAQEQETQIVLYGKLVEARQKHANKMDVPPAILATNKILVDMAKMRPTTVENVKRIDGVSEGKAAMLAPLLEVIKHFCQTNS

IC50 [1] | GI50 [2] | GI50 [3] | IC50 [4, 5] | IC50 [4] | SMILES
1.68 µM | 0.165 µM | 37.4 µM | 0.645 µM |  | CS(=O)(=O)/C=C/[C@@H](NC(=O)c1cnc(C2CC2)nc1Oc1ccccc1)C1CCC1 [Example 29, (S,E)-N-(1-cyclobutyl-3-(methylsulfonyl)allyl)-2-cyclopropyl-4-phenoxypyrimidine-5-carboxamide]
1.43 µM | 0.12 µM | 16 µM | 0.45 µM |  | CS(=O)(=O)/C=C/[C@@H](NC(=O)c1cnc(C2CC2)nc1Oc1ccccc1)C1CC(F)(F)C1 [Example 30, (S,E)-2-cyclopropyl-N-(1-(3,3-difluorocyclobutyl)-3-(methylsulfonyl)allyl)-4-phenoxypyrimidine-5-carboxamide]
3.24 µM | 0.63 µM | 28 µM | 0.88 µM |  | CSC[C@@H](/C=C/S(C)(=O)=O)NC(=O)c1cnc(C2CC2)nc1Oc1ccccc1 [Example 31, (R,E)-2-cyclopropyl-N-(4-(methylsulfonyl)-1-(methylthio)but-3-en-2-yl)-4-phenoxypyrimidine-5-carboxamide]
4.64 µM | 1.3 µM | > 100 µM | 2.5 µM |  | CS(=O)(=O)/C=C/[C@@H](NC(=O)c1cnc(C2CC2)nc1Oc1ccccc1)C1CCOCC1 [Example 33, (S,E)-2-cyclopropyl-N-(3-(methylsulfonyl)-1-(tetrahydro-2H-pyran-4-yl)allyl)-4-phenoxypyrimidine-5-carboxamide]
0.45 µM | 0.059 µM | 17.7 µM | 0.185 µM |  | CS(=O)(=O)/C=C/[C@@H](NC(=O)c1cnc(CC2CC2)nc1Oc1ccccc1)C1CC1 [Example 36, (S,E)-N-(1-cyclopropyl-3-(methylsulfonyl)allyl)-2-(cyclopropylmethyl)-4-phenoxypyrimidine-5-carboxamide]
0.45 µM | 0.0359 µM | 28.6 µM | 0.24 µM |  | CS(=O)(=O)/C=C/[C@@H](NC(=O)c1cnc(C(F)C2CC2)nc1Oc1ccccc1)C1CC1 (stereo partly drawn) [Example 37, N—((S,E)-1-cyclopropyl-3-(methylsulfonyl)allyl)-2-(cyclopropylfluoromethyl)-4-phenoxypyrimidine-5-carboxamide]
0.8 µM | 0.157 µM | 11.7 µM | 0.434 µM |  | C[C@@H](/C=C/S(C)(=O)=O)NC(=O)c1cnc(C2(C)CC2)nc1Oc1ccccc1 [Example 38, (S,E)-2-(1-methylcyclopropyl)-N-(4-(methylsulfonyl)but-3-en-2-yl)-4-phenoxypyrimidine-5-carboxamide]
0.64 µM | 0.11 µM | 14 µM |  | 0.24 µM | CC1(c2ncc(C(=O)N3CC(=CS(C)(=O)=O)C3)c(Oc3ccccc3)n2)CC1 [Example 39, (2-(1-methylcyclopropyl)-4-phenoxypyrimidin-5-yl)(3-((methylsulfonyl)methylene)azetidin-1-yl)methanone]
3.48 µM | 1.2 µM | 49 µM | 2.7 µM |  | C[C@@H](/C=C/S(C)(=O)=O)NC(=O)c1cnc(CC2(C)CC2)nc1Oc1ccccc1 [Example 40, (S,E)-2-((1-methylcyclopropyl)methyl)-N-(4-(methylsulfonyl)but-3-en-2-yl)-4-phenoxypyrimidine-5-carboxamide]
2.06 µM | 0.72 µM | 33 µM |  | 1.4 µM | CC1(Cc2ncc(C(=O)N3CC(=CS(C)(=O)=O)C3)c(Oc3ccccc3)n2)CC1 [Example 41, (2-((1-methylcyclopropyl)methyl)-4-phenoxypyrimidin-5-yl)(3-((methylsulfonyl)methylene)azetidin-1-yl)methanone]
4.44 µM | 0.355 µM | 5.2 µM | 1.7 µM |  | C[C@@H](/C=C/S(C)(=O)=O)NC(=O)c1cnc(C2(c3ccccc3)CC2)nc1Oc1ccccc1 [Example 42, (S,E)-N-(4-(methylsulfonyl)but-3-en-2-yl)-4-phenoxy-2-(1-phenylcyclopropyl)pyrimidine-5-carboxamide]
18.7 µM | 0.67 µM | 7.8 µM | 1.5 µM |  | CS(=O)(=O)/C=C/CNC(=O)c1cnc(C2CCC2)nc1Oc1ccccc1 [Example 43, (E)-2-cyclobutyl-N-(3-(methylsulfonyl)allyl)-4-phenoxypyrimidine-5-carboxamide]
0.11 µM | 0.0367 µM | 13 µM | 0.086 µM |  | CS(=O)(=O)/C=C/[C@@H](NC(=O)c1cnc(C2CCC2)nc1Oc1ccccc1)C1CC1 [Example 45, (S,E)-2-cyclobutyl-N-(1-cyclopropyl-3-(methylsulfonyl)allyl)-4-phenoxypyrimidine-5-carboxamide]
14.5 µM | 0.97 µM | > 10 µM | 3.6 µM |  | C[C@@H](/C=C/S(C)(=O)=O)NC(=O)c1cnc(CC2CCC2)nc1Oc1ccccc1 [Example 53, (S,E)-2-(cyclobutylmethyl)-N-(4-(methylsulfonyl)but-3-en-2-yl)-4-phenoxypyrimidine-5-carboxamide]
50 µM | 0.77 µM | > 10 µM | 2.6 µM |  | C[C@@H](/C=C/S(C)(=O)=O)NC(=O)c1cnc(CC2CCCC2)nc1Oc1ccccc1 [Example 54, (S,E)-2-(cyclopentylmethyl)-N-(4-(methylsulfonyl)but-3-en-2-yl)-4-phenoxypyrimidine-5-carboxamide]
8.68 µM | 0.15 µM | 6.2 µM | 0.91 µM |  | C[C@@H](/C=C/S(C)(=O)=O)NC(=O)c1cnc(C2CC3(CC3)C2)nc1Oc1ccccc1 [Example 55, (S,E)-N-(4-(methylsulfonyl)but-3-en-2-yl)-4-phenoxy-2-(spiro[2.3]hexan-5-yl)pyrimidine-5-carboxamide]
4.09 µM | 0.265 µM | 13.2 µM |  | 0.65 µM | CC(C)(C)c1ncc(C(=O)N2CC(=CS(=O)(=O)C3CCOCC3)C2)c(Oc2ccccc2)n1 [Example 62, (2-(tert-butyl)-4-phenoxypyrimidin-5-yl)(3-(((tetrahydro-2H-pyran-4-yl)sulfonyl)methylene)azetidin-1-yl)methanone]
0.5 µM | 0.0306 µM | 31 µM | 0.0879 µM |  | COC[C@@H](/C=C/S(C)(=O)=O)NC(=O)c1cnc(C(C)(C)C)nc1Oc1ccccc1 [Example 63, (R,E)-2-(tert-butyl)-N-(1-methoxy-4-(methylsulfonyl)but-3-en-2-yl)-4-phenoxypyrimidine-5-carboxamide]
> 100 µM | 2.3 µM | 36 µM | 8.6 µM |  | COC[C@H](/C=C/S(C)(=O)=O)NC(=O)c1cnc(C(C)(C)C)nc1Oc1ccccc1 [Example 64, (S,E)-2-(tert-butyl)-N-(1-methoxy-4-(methylsulfonyl)but-3-en-2-yl)-4-phenoxypyrimidine-5-carboxamide]
1.17 µM | 0.0869 µM | 25.4 µM | 0.3 µM |  | CC(C)(C)c1ncc(C(=O)N[C@H](/C=C/S(C)(=O)=O)CC2CC2)c(Oc2ccccc2)n1 [Example 65, (S,E)-2-(tert-butyl)-N-(1-cyclopropyl-4-(methylsulfonyl)but-3-en-2-yl)-4-phenoxypyrimidine-5-carboxamide]
0.38 µM | 0.0302 µM | 21.8 µM | 0.113 µM |  | CC(C)(C)c1ncc(C(=O)N[C@H](/C=C/S(C)(=O)=O)C2CCC2)c(Oc2ccccc2)n1 [Example 66, (S,E)-2-(tert-butyl)-N-(1-cyclobutyl-3-(methylsulfonyl)allyl)-4-phenoxypyrimidine-5-carboxamide]
0.5 µM | 0.0439 µM | 9.78 µM | 0.14 µM |  | CC(C)(C)c1ncc(C(=O)N[C@H](/C=C/S(C)(=O)=O)C2CC(F)(F)C2)c(Oc2ccccc2)n1 [Example 67, (S,E)-2-(tert-butyl)-N-(1-(3,3-difluorocyclobutyl)-3-(methylsulfonyl)allyl)-4-phenoxypyrimidine-5-carboxamide]
1 µM | 0.23 µM | 31.4 µM | 0.18 µM |  | CSC[C@@H](/C=C/S(C)(=O)=O)NC(=O)c1cnc(C(C)(C)C)nc1Oc1ccccc1 [Example 68, (R,E)-2-(tert-butyl)-N-(4-(methylsulfonyl)-1-(methylthio)but-3-en-2-yl)-4-phenoxypyrimidine-5-carboxamide]
11 µM | 1.22 µM | 51.6 µM | 3.39 µM |  | CO[C@H](C)[C@@H](/C=C/S(C)(=O)=O)NC(=O)c1cnc(C(C)(C)C)nc1Oc1ccccc1 [Example 69, 2-(tert-butyl)-N-((3R,4R,E)-4-methoxy-1-(methylsulfonyl)pent-1-en-3-yl)-4-phenoxypyrimidine-5-carboxamide]
0.79 µM | 0.13 µM | > 58.7 µM | 0.24 µM |  | CC(C)(C)c1ncc(C(=O)N[C@H](/C=C/S(C)(=O)=O)C2CCOCC2)c(Oc2ccccc2)n1 [Example 70, (S,E)-2-(tert-butyl)-N-(3-(methylsulfonyl)-1-(tetrahydro-2H-pyran-4-yl)allyl)-4-phenoxypyrimidine-5-carboxamide]
